Tested on: 349418-098-R-PDC complex spheroid growth
Experiment: Anticancer human tumor 349418-098-R-PDC patient-derived lung adenocarcinoma cell line growth inhibition [AhR]
Conditions: for IC50: curve of first compound; for viability, T/C: stronger effect = lower value
Summary of the method: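 Complex tumor spheroids co-cultured with HUVEC and human MSC stroma; AhR antagonists tested in combination with standard-of-care and investigational agents. Top concentration at or near clinical Cmax (else 10 microM), half-log dilutions; growth expressed as percent test/control.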

[1] = second compound 0.1 µM, first compound 0.0316 µM
[2] = second compound 0.1 µM, first compound 0.1 µM
[3] = second compound 0.1 µM, first compound 0.316 µM
[4] = second compound 0.1 µM, first compound 1 µM
[5] = second compound 0.1 µM, first compound 3.16 µM
[6] = second compound 0.1 µM, first compound 10 µM
[7] = second compound 0.316 µM, first compound 0.0316 µM
[8] = second compound 0.316 µM, first compound 0.1 µM
[9] = second compound 0.316 µM, first compound 0.316 µM
[10] = second compound 0.316 µM, first compound 1 µM
[11] = second compound 0.316 µM, first compound 3.16 µM
[12] = second compound 0.316 µM, first compound 10 µM
[13] = second compound 1 µM, first compound 0.0316 µM
[14] = second compound 1 µM, first compound 0.1 µM
[15] = second compound 1 µM, first compound 0.316 µM
[16] = second compound 1 µM, first compound 1 µM
[17] = second compound 1 µM, first compound 3.16 µM
[18] = second compound 1 µM, first compound 10 µM
[19] = second compound 3.16 µM, first compound 0.0316 µM
[20] = second compound 3.16 µM, first compound 0.1 µM
[21] = second compound 3.16 µM, first compound 0.316 µM
[22] = second compound 3.16 µM, first compound 1 µM
[23] = second compound 3.16 µM, first compound 3.16 µM
[24] = second compound 3.16 µM, first compound 10 µM
[25] = second compound 10 µM, first compound 0.0316 µM
[26] = second compound 10 µM, first compound 0.1 µM
[27] = second compound 10 µM, first compound 0.316 µM
[28] = second compound 10 µM, first compound 1 µM
[29] = second compound 10 µM, first compound 3.16 µM
[30] = second compound 10 µM, first compound 10 µM
[31] = second compound 0.1 µM, first compound 0.00949 µM
[32] = second compound 0.1 µM, first compound 0.03 µM
[33] = second compound 0.1 µM, first compound 0.0949 µM
[34] = second compound 0.1 µM, first compound 0.3 µM
[35] = second compound 0.316 µM, first compound 0.00949 µM
[36] = second compound 0.316 µM, first compound 0.03 µM
[37] = second compound 0.316 µM, first compound 0.0949 µM
[38] = second compound 0.316 µM, first compound 0.3 µM
[39] = second compound 1 µM, first compound 0.00949 µM
[40] = second compound 1 µM, first compound 0.03 µM
[41] = second compound 1 µM, first compound 0.0949 µM
[42] = second compound 1 µM, first compound 0.3 µM
[43] = second compound 3.16 µM, first compound 0.00949 µM
[44] = second compound 3.16 µM, first compound 0.03 µM
[45] = second compound 3.16 µM, first compound 0.0949 µM
[46] = second compound 3.16 µM, first compound 0.3 µM
[47] = second compound 10 µM, first compound 0.00949 µM
[48] = second compound 10 µM, first compound 0.03 µM
[49] = second compound 10 µM, first compound 0.0949 µM
[50] = second compound 10 µM, first compound 0.3 µM
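Also: spheroids exposed to agents for seven days before luminescence viability read.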
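For viability, T/C in this document: spheroids also contain HUVEC endothelial cells and human MSC stroma.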

CC1(C)CCC(CN2CCN(c3ccc(C(=O)NS(=O)(=O)c4ccc(NCC5CCOCC5)c([N+](=O)[O-])c4)c(Oc4cnc5[nH]ccc5c4)c3)CC2)=C(c2ccc(Cl)cc2)C1 + Cc1cncc(-c2nc(NCCc3c[nH]c4ccccc34)c3ncn(C(C)C)c3n2)c1
IC50 (second compound 0.1 µM): > 10000 nM | IC50 (second compound 0.316 µM): > 10000 nM | IC50 (second compound 1 µM): > 10000 nM | IC50 (second compound 3.16 µM): < 31.6 nM | IC50 (second compound 10 µM): < 31.6 nM | viability, T/C [1]: 102% | viability, T/C [2]: 108% | viability, T/C [3]: 96.2% | viability, T/C [4]: 92.4% | viability, T/C [5]: 90.2% | viability, T/C [6]: 88.4% | viability, T/C [7]: 99.3% | viability, T/C [8]: 99.8% | viability, T/C [9]: 103% | viability, T/C [10]: 87.7% | viability, T/C [11]: 90.8% | viability, T/C [12]: 94.1% | viability, T/C [13]: 104% | viability, T/C [14]: 98.5% | viability, T/C [15]: 91.3% | viability, T/C [16]: 81.4% | viability, T/C [17]: 83% | viability, T/C [18]: 86.4% | viability, T/C [19]: 22.3% | viability, T/C [20]: 24.5% | viability, T/C [21]: 23.2% | viability, T/C [22]: 28.6% | viability, T/C [23]: 27.3% | viability, T/C [24]: 26.6% | viability, T/C [25]: 3.27% | viability, T/C [26]: 2.85% | viability, T/C [27]: 2.92% | viability, T/C [28]: 3.37% | viability, T/C [29]: 3.16% | viability, T/C [30]: 3.69%

CC1COCCN1c1cc(C2(S(C)(=N)=O)CC2)nc(-c2ccnc3[nH]ccc23)n1 (stereo not given) + Cc1cncc(-c2nc(NCCc3c[nH]c4ccccc34)c3ncn(C(C)C)c3n2)c1
IC50 (second compound 0.1 µM): 5350 nM | IC50 (second compound 0.316 µM): 4160 nM | IC50 (second compound 1 µM): 4260 nM | IC50 (second compound 3.16 µM): < 31.6 nM | IC50 (second compound 10 µM): < 31.6 nM | viability, T/C [1]: 90.9% | viability, T/C [2]: 97% | viability, T/C [3]: 93.9% | viability, T/C [4]: 99.3% | viability, T/C [5]: 75.3% | viability, T/C [6]: 20% | viability, T/C [7]: 90.1% | viability, T/C [8]: 94.2% | viability, T/C [9]: 95.5% | viability, T/C [10]: 89.9% | viability, T/C [11]: 61.4% | viability, T/C [12]: 13.6% | viability, T/C [13]: 78.7% | viability, T/C [14]: 72.9% | viability, T/C [15]: 85.2% | viability, T/C [16]: 73.4% | viability, T/C [17]: 61.9% | viability, T/C [18]: 15.7% | viability, T/C [19]: 15.7% | viability, T/C [20]: 15.9% | viability, T/C [21]: 12.6% | viability, T/C [22]: 12.1% | viability, T/C [23]: 8.67% | viability, T/C [24]: 7.34% | viability, T/C [25]: 2.06% | viability, T/C [26]: 2.37% | viability, T/C [27]: 2.46% | viability, T/C [28]: 2.04% | viability, T/C [29]: 2.07% | viability, T/C [30]: 2.16%

CCN(c1cc(-c2ccc(CN3CCOCC3)cc2)cc(C(=O)NCc2c(C)cc(C)[nH]c2=O)c1C)C1CCOCC1 + Cc1cncc(-c2nc(NCCc3c[nH]c4ccccc34)c3ncn(C(C)C)c3n2)c1
IC50 (second compound 0.1 µM): > 3000 nM | IC50 (second compound 0.316 µM): > 3000 nM | IC50 (second compound 1 µM): > 3000 nM | IC50 (second compound 3.16 µM): < 9.49 nM | IC50 (second compound 10 µM): < 9.49 nM | viability, T/C [31]: 98.9% | viability, T/C [32]: 85% | viability, T/C [33]: 98% | viability, T/C [34]: 96.5% | viability, T/C (second compound 0.1 µM, first compound 0.949 µM): 97.7% | viability, T/C (second compound 0.1 µM, first compound 3 µM): 80.5% | viability, T/C [35]: 105% | viability, T/C [36]: 94.2% | viability, T/C [37]: 103% | viability, T/C [38]: 103% | viability, T/C (second compound 0.316 µM, first compound 0.949 µM): 105% | viability, T/C (second compound 0.316 µM, first compound 3 µM): 76.5% | viability, T/C [39]: 82.8% | viability, T/C [40]: 94% | viability, T/C [41]: 81% | viability, T/C [42]: 74.5% | viability, T/C (second compound 1 µM, first compound 0.949 µM): 77.2% | viability, T/C (second compound 1 µM, first compound 3 µM): 71.9% | viability, T/C [43]: 19.9% | viability, T/C [44]: 17.9% | viability, T/C [45]: 19.6% | viability, T/C [46]: 15.1% | viability, T/C (second compound 3.16 µM, first compound 0.949 µM): 14.2% | viability, T/C (second compound 3.16 µM, first compound 3 µM): 12.3% | viability, T/C [47]: 3.07% | viability, T/C [48]: 3.18% | viability, T/C [49]: 2.66% | viability, T/C [50]: 2.82% | viability, T/C (second compound 10 µM, first compound 0.949 µM): 2.27% | viability, T/C (second compound 10 µM, first compound 3 µM): 1.62%

Nc1ncn(C2CC(O)C(CO)S2)c(=O)n1 (stereo not given) + Cc1cncc(-c2nc(NCCc3c[nH]c4ccccc34)c3ncn(C(C)C)c3n2)c1
IC50 (second compound 0.1 µM): 133 nM | IC50 (second compound 0.316 µM): 133 nM | IC50 (second compound 1 µM): < 0.949 nM | IC50 (second compound 3.16 µM): 76.2 nM | IC50 (second compound 10 µM): < 0.949 nM | viability, T/C (second compound 0.1 µM, first compound 0.000949 µM): 102% | viability, T/C (second compound 0.1 µM, first compound 0.003 µM): 96.7% | viability, T/C [31]: 90.8% | viability, T/C [32]: 74.5% | viability, T/C [33]: 59.3% | viability, T/C [34]: 30.7% | viability, T/C (second compound 0.316 µM, first compound 0.000949 µM): 88.6% | viability, T/C (second compound 0.316 µM, first compound 0.003 µM): 93.7% | viability, T/C [35]: 83% | viability, T/C [36]: 71.4% | viability, T/C [37]: 59.1% | viability, T/C [38]: 31.8% | viability, T/C (second compound 1 µM, first compound 0.000949 µM): 47.5% | viability, T/C (second compound 1 µM, first compound 0.003 µM): 42.5% | viability, T/C [39]: 38.9% | viability, T/C [40]: 37.6% | viability, T/C [41]: 30.4% | viability, T/C [42]: 24% | viability, T/C (second compound 3.16 µM, first compound 0.000949 µM): 70% | viability, T/C (second compound 3.16 µM, first compound 0.003 µM): 86.3% | viability, T/C [43]: 94.6% | viability, T/C [44]: 73.6% | viability, T/C [45]: 44.7% | viability, T/C [46]: 30.6% | viability, T/C (second compound 10 µM, first compound 0.000949 µM): 2.25% | viability, T/C (second compound 10 µM, first compound 0.003 µM): 2.66% | viability, T/C [47]: 2.49% | viability, T/C [48]: 2.15% | viability, T/C [49]: 2.02% | viability, T/C [50]: 2.32%

Reference: PubChem BioAssay AID1918996 (Molecular Pharmacology Branch, DTP, NCI, 2023)
